Measurements: article PMC4411097, “Pachymic Acid Inhibits Growth and Induces Apoptosis of Pancreatic Cancer In Vitro and In Vivo by Targeting ER Stress” (PLoS ONE, 2015)

Key:
[1] = tested on: advanced pancreatic cancer; conditions: cited from earlier work
[2] = tested on: ER stress response proteins in PANC-1 cells; test: Western blot of ER stress response proteins; assay type: cell-based, human; conditions: PANC-1, TUDCA 200 μM with PA 30 μM, 24 h
Method: (§1) PANC-1, MIA PaCa-2 cells were treated with PA (0–30 μM) for 10 min, 30 min or 24 h, respectively. Whole protein extracts isolated from cells and tumor tissues were prepared and western blot analysis with anti-cleaved PARP, anti-XBP-1s, anti-ATF6, anti-ATF4, anti-Hsp70, anti-CHOP, anti-phospho-eIF2α or anti-eIF2α antibodies were performed as previously described. Western blots were quantified with HP-Scanjet 550c and analyzed by UN-SCAN-IT software (Silk Scientific, Orem, UT). Three independent experiments were done for all the immunoblot studies and quantitative data composed of all the experiments with statistical analysis were added below the representative blot image.

[3] = tested on: ER stress response proteins in MIA PaCa-2 cells; test: Western blot of ER stress response proteins; assay type: cell-based, human; conditions: MIA PaCa-2, TUDCA 200 μM with PA 30 μM, 24 h
Method: as §1

[4] = tested on: MIA PaCa-2 cells; test: Apoptosis, Cell Death Detection ELISA (cytoplasmic histone-associated DNA fragments); assay type: cell-based, human; conditions: MIA PaCa-2, TUDCA 200 μM with PA 30 μM, 24 h
Method: (§2) Apoptosis induction in PA-treated cells was assessed by quantitation of cytoplasmic histone-associated DNA fragments and western blotting for PARP cleavage (c-PARP). The Cell Death Detection ELISA^PLUS Kit (Roche, Indianapolis, IN) was used to detect the amount of cytoplasmic histone-associated DNA fragments according to the manufacturer’s instructions and expressed relative to vehicle-treated cells (set equal to 1).

[5] = tested on: PANC-1 cells; test: as above; assay type: cell-based, human; conditions: PANC-1, TUDCA 200 μM with PA 30 μM, 24 h
Method: as §2

[6] = tested on: PARP cleavage (c-PARP) in MIA PaCa-2 cells; test: Western blot for PARP cleavage (c-PARP); assay type: cell-based, human; conditions: MIA PaCa-2, TUDCA 200 μM with PA 30 μM, 24 h
Method: as §2, §1

[7] = tested on: PARP cleavage (c-PARP) in PANC-1 cells; test: Western blot for PARP cleavage (c-PARP); assay type: cell-based, human; conditions: PANC-1, TUDCA 200 μM with PA 30 μM, 24 h
Method: as §2, §1

Row | Compound | Response rate ([1]; advanced pancreatic cancer) | Median survival time ([1]; pancreatic cancer) | Tumor response rate ([1]; pancreatic cancer) | Effect of TUDCA on PA-induced ATF4 and CHOP [2] | Effect of TUDCA on PA-induced ATF4 and CHOP [3] | Effect of TUDCA on PA-associated nuclear DNA fragmentation [4] | Effect of TUDCA on PA-associated nuclear DNA fragmentation [5] | Effect of TUDCA on PA-associated c-PARP expression [6] | Effect of TUDCA on PA-associated c-PARP expression [7]
1 | Nc1ccn([C@@H]2O[C@H](CO)[C@@H](O)C2(F)F)c(=O)n1 [Gemcitabine] | less than 20% | 5 months | 12% |  |  |  |  |  | 
2 | C[C@H](CCC(=O)NCCS(=O)(=O)O)[C@H]1CC[C@H]2[C@@H]3[C@@H](O)C[C@@H]4C[C@H](O)CC[C@]4(C)[C@H]3CC[C@]12C [TUDCA, tauroursodeoxycholic acid, reference compound] |  |  |  | blocked the induction of ATF4 and CHOP | blocked the induction of ATF4 and CHOP | rescued | rescued | blocked the enormous increase in the expression of c-PARP | blocked the enormous increase in the expression of c-PARP
